Results: ChEMBL document CHEMBL1147755, “5-heteroatom substituted pyrazoles as canine COX-2 inhibitors. Part 1: Structure-activity relationship studies of 5-alkylamino pyrazoles and discovery of a potent, selective, and orally active analog” (Bioorg Med Chem Lett, 2006)
Activity calls are given as the source filed them. The rule behind the calls is not given here.

Legend:
Canis lupus familiaris = species on record: Canis lupus familiaris; assay: Selectivity of COX1 over COX2 in canine whole blood assay; format: tissue-based
[1] = biological target: T1, Prostaglandin G/H synthase 1 (Canis lupus familiaris, UniProt Q8HZR1)
T1 sequence (Q8HZR1 whole entry): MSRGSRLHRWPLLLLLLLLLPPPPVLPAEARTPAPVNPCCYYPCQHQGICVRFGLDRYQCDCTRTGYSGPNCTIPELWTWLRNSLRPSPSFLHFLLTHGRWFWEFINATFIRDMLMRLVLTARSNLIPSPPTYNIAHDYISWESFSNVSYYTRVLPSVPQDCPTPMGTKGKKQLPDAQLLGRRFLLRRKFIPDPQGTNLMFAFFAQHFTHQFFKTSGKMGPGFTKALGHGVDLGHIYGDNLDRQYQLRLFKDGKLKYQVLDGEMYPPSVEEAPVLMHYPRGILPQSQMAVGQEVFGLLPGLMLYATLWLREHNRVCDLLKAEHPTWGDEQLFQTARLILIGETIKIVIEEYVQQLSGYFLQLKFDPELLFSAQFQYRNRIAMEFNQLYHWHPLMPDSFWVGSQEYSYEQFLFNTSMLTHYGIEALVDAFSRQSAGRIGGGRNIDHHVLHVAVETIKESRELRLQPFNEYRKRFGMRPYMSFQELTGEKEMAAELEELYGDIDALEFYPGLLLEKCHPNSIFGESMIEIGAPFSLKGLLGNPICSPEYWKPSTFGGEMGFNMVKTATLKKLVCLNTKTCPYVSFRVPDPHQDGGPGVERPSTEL
Description: Inhibitory activity against COX1 in canine whole blood

Cyclooxygenase-2 = biological target: T2, Cyclooxygenase-2 (Canis lupus familiaris, UniProt Q8SPQ9)
T2 sequence (Q8SPQ9 whole entry): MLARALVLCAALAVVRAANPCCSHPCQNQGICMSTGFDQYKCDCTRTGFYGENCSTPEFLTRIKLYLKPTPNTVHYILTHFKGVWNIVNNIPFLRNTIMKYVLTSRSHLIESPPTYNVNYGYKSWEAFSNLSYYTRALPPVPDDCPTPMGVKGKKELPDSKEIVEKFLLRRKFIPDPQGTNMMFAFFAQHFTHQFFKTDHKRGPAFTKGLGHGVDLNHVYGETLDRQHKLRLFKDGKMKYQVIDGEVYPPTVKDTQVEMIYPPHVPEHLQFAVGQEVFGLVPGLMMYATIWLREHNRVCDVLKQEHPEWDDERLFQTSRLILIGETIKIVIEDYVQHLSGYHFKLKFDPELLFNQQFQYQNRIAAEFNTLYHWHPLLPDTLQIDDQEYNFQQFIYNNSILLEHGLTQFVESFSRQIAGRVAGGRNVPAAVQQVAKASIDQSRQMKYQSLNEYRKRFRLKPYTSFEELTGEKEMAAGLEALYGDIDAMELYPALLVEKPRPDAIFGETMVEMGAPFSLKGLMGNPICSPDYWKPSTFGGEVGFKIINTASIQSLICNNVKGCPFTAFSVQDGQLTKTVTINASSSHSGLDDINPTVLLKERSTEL
Description: Inhibitory activity against COX2 in canine whole blood

[2] = Cmax in dog administered at 2 mg/kg, po; format: ADME, organism-based, Canis lupus familiaris; design: dose 2 mg/kg, route oral; conditions: in vivo
[3] = Tmax in dog administered at 2 mg/kg, po; format: ADME, organism-based, Canis lupus familiaris; design: dose 2 mg/kg, route oral; conditions: in vivo
Canis familiaris [4] = assay: AUC in dog administered at 2 mg/kg, po; format: ADME, organism-based, Canis lupus familiaris, Plasma; design: dose 2 mg/kg, route oral; conditions: in vivo
[5] = Half life in dog administered at 2 mg/kg, po; format: ADME, organism-based, Canis lupus familiaris; design: dose 2 mg/kg, route oral; conditions: in vivo
[6] = Half life in cat administered at 0.5 mg/kg, sc; format: ADME, organism-based, Felis catus; design: dose 0.5 mg/kg, route subcutaneous; conditions: in vivo
[7] = Cmax in cat administered at 0.5 mg/kg, sc; format: ADME, organism-based, Felis catus; design: dose 0.5 mg/kg, route subcutaneous; conditions: in vivo
[8] = Tmax in cat administered at 0.5 mg/kg, sc; format: ADME, organism-based, Felis catus; design: dose 0.5 mg/kg, route subcutaneous; conditions: in vivo
[9] = AUC in cat administered at 0.5 mg/kg, sc; format: ADME, organism-based, Felis catus; design: dose 0.5 mg/kg, route subcutaneous; conditions: plasma
Canis familiaris [10] = assay: Decrease in lameness induced by synovitis in knee joints of Beagle dogs at 4 mg/kg; format: functional, organism-based; design: dose 4 mg/kg; conditions: Canis lupus familiaris, Knee joint

Compound | Ratio IC50 (Canis lupus familiaris) | IC50 [1] [nM] | IC50 (Cyclooxygenase-2) [nM] | Cmax [2] [ng/mL] | Tmax [3] [h] | AUC (Canis familiaris [4]) [ng·h/mL] | half-life [5] [h] | half-life [6] [h] | Cmax [7] [ng/mL] | Tmax [8] [h] | AUC [9] [ng·h/mL] | Activity (Canis familiaris [10])
CC(C)(C)CNc1c(C#N)c(C(F)F)nn1-c1ccc(S(C)(=O)=O)cn1 | 180 | 36300 | 200 |  |  |  |  |  |  |  |  | 
CS(=O)(=O)c1ccc(-n2nc(C(F)(F)F)c(C#N)c2NCC2OCCO2)nc1 | > 397 | > 50000 | 126 |  |  |  |  |  |  |  |  | 
CS(=O)(=O)c1ccc(-n2nc(C(F)(F)F)c(C#N)c2NCc2cccs2)nc1 | 44.5 | 5600 | 125 |  |  |  |  |  |  |  |  | 
CS(=O)(=O)c1ccc(-n2nc(C(F)F)c(C#N)c2NC2CC3CCC2C3)nc1 (configuration not stated) | 49.8 | 20900 | 420 |  |  |  |  |  |  |  |  | 
CS(=O)(=O)c1ccc(-n2nc(C(F)(F)F)c(C#N)c2NCC2CC2)nc1 | 200 | 22000 | 110 |  |  |  |  |  |  |  |  | 
CCC(CC)Nc1c(C#N)c(C(F)(F)F)nn1-c1ccc(S(C)(=O)=O)cn1 | 33.8 | 6700 | 197 |  |  |  |  |  |  |  |  | 
CC(C)(C)CNc1c(C#N)c(C(F)(F)F)nn1-c1ccc(S(C)(=O)=O)cn1 | > 217 | > 50000 | 230 |  |  |  |  |  |  |  |  | 
CCC(C)CNc1c(C#N)c(C(F)(F)F)nn1-c1ccc(S(N)(=O)=O)cn1 (configuration not stated) | 23.1 | 4500 | 190 | 310 | 1.3 | 910 | 2.4 |  |  |  |  | 
CS(=O)(=O)c1ccc(-n2nc(C(F)F)c(C#N)c2N2CCCCCC2)nc1 | 99.3 | 12900 | 130 | 92 | 0.8 | 281 | 2.1 |  |  |  |  | 
CS(=O)(=O)c1ccc(-n2nc(C(F)F)c(C#N)c2NCC2OCCO2)nc1 | > 259 | > 50000 | 190 |  |  |  |  |  |  |  |  | 
CC1CCCCC1Nc1c(C#N)c(C(F)(F)F)nn1-c1ccc(S(C)(=O)=O)cn1 (configuration not stated) | 36 | 10800 | 297 |  |  |  |  |  |  |  |  | 
N#Cc1c(C(F)(F)F)nn(-c2ccc(S(N)(=O)=O)cn2)c1NC1CC2CCC1C2 (configuration not stated) | 107 | 15500 | 140 |  |  |  |  |  |  |  |  | 
C[C@@H]1C[C@H](C)CN(c2c(C#N)c(C(F)F)nn2-c2ccc(S(N)(=O)=O)cn2)C1 | 34.7 | 7000 | 210 | 506 | 0.5 | 2100 | 1.5 |  |  |  |  | 
C[C@@H]1CN(c2c(C#N)c(C(F)(F)F)nn2-c2ccc(S(N)(=O)=O)cn2)C[C@H](C)O1 | > 6.3 | > 50000 | 7900 |  |  |  |  |  |  |  |  | 
Cc1ccc(CNc2c(C#N)c(C(F)(F)F)nn2-c2ccc(S(C)(=O)=O)cn2)cc1 | 187 | 21500 | 115 |  |  |  |  |  |  |  |  | 
C[C@@H]1CN(c2c(C#N)c(C(F)F)nn2-c2ccc(S(C)(=O)=O)cn2)C[C@H](C)O1 | 186 | 43800 | 240 | 815 | 1.4 | 4830 | 11 | 60 | 194 | 28 | 26800 | Active
CC(C)C(C)Nc1c(C#N)c(C(F)(F)F)nn1-c1ccc(S(C)(=O)=O)cn1 (configuration not stated) | 25.8 | 3400 | 132 |  |  |  |  |  |  |  |  | 
C[C@@H]1CN(c2c(C#N)c(C(F)F)nn2-c2ccc(S(N)(=O)=O)cn2)C[C@H](C)O1 | > 10 | > 50000 | 5000 |  |  |  |  |  |  |  |  | 
C[C@@H]1CN(c2c(C#N)c(C(F)(F)F)nn2-c2ccc(S(C)(=O)=O)cn2)C[C@H](C)O1 | > 357 | > 50000 | 140 | 134 | 1 | 1950 | 30 |  |  |  |  | 
N#Cc1c(C(F)(F)F)nn(-c2ccc(S(N)(=O)=O)cn2)c1NCC1CCCO1 (configuration not stated) | 11.7 | 14600 | 1250 | 528 | 1.5 | 1360 | 1 |  |  |  |  | 
CC1CC(C)CN(c2c(C#N)c(C(F)(F)F)nn2-c2ccc(S(C)(=O)=O)cn2)C1 (configuration not stated) | > 526 | > 50000 | 95 |  |  |  |  |  |  |  |  | 
CC1CC(C)CN(c2c(C#N)c(C(F)(F)F)nn2-c2ccc(S(N)(=O)=O)cn2)C1 (configuration not stated) | 22.8 | 42600 | 1870 |  |  |  |  |  |  |  |  | 
CS(=O)(=O)c1ccc(-n2nc(C(F)(F)F)c(C#N)c2NC2CC3CCC2C3)nc1 (configuration not stated) | 107 | 15500 | 144 |  |  |  |  |  |  |  |  | 
CC(C)(C)CNc1c(C#N)c(C(F)(F)F)nn1-c1ccc(S(N)(=O)=O)cn1 | 98.7 | 13200 | 130 |  |  |  |  |  |  |  |  | 
CC(C)(C)CNc1c(C#N)c(C(F)F)nn1-c1ccc(S(N)(=O)=O)cn1 | 48.2 | 18000 | 360 |  |  |  |  |  |  |  |  | 
CS(=O)(=O)c1ccc(-n2nc(C(F)(F)F)c(C#N)c2N2CCCCC2)nc1 | > 325 | > 50000 | 150 |  |  |  |  |  |  |  |  | 
CS(=O)(=O)c1ccc(-n2nc(C(F)(F)F)c(C#N)c2NCC2CCCO2)nc1 (configuration not stated) | 262 | 16500 | 63 | 86 | 0.5 | 118 | 2 |  |  |  |  | 
CCC(C)CNc1c(C#N)c(C(F)F)nn1-c1ccc(S(N)(=O)=O)cn1 (configuration not stated) | 21.9 | 4000 | 200 |  |  |  |  |  |  |  |  | 
CC1CCCN(c2c(C#N)c(C(F)F)nn2-c2ccc(S(C)(=O)=O)cn2)C1 (configuration not stated) | 75 | 2000 | 30 | 151 | 0.5 | 450 | 4.6 |  |  |  |  | 
CC(C)Nc1c(C#N)c(C(F)(F)F)nn1-c1ccc(S(C)(=O)=O)cn1 | 114 | 40800 | 360 |  |  |  |  |  |  |  |  | 
